According to patent US7803808B2, “Production of polyketides and other natural products” (Wyeth LLC, priority 2004, dated 2010):

Tests used:
[1] = tested on: cell proliferation; conditions: compared to rapamycin; Khaw et al., 1998; cited from earlier work
[2] = tested on: mixed lymphocyte reaction; conditions: Nishida et al., 1995; cited from earlier work
[3] = tested on: SF268 (SF-268, CNS) tumour cell line; assay: Monolayer proliferation assay (modified propidium iodide), SF268; format: cell-based, human; conditions: 4 days incubation, mean of duplicate experiments
Description: (§1) In vitro evaluation of compounds for anticancer activity in a panel of 12 human tumour cell lines in a monolayer proliferation assay were carried out at the Oncotest Testing Facility, Institute for Experimental Oncology, Oncotest GmbH, Freiburg.
(§2) The Oncotest cell lines were established from human tumor xenografts as described by Roth et al. 1999. The origin of the donor xenografts was described by Fiebig et al. 1992. Other cell lines were either obtained from the NCI (H460, SF-268, OVCAR-3, DU145, MDA-MB-231, MDA-MB-468) or purchased from DSMZ, Braunschweig, Germany (LNCAP).
(§3) All cell lines, unless otherwise specified, are grown at 37° C. in a humidified atmosphere (95% air, 5% CO2) in a ‘ready-mix’ medium containing RPMI 1640 medium, 10% fetal calf serum, and 0.1 mg/mL gentamicin (PAA, Cölbe, Germany).
(§4) A modified propidium iodide assay was used to assess the effects of the test compound(s) on the growth of twelve human tumor cell lines (Dengler et al., 1995).
(§5) Briefly, cells were harvested from exponential phase cultures by trypsinization, counted and plated in 96 well flat-bottomed microtitre plates at a cell density dependent on the cell line (5-10.000 viable cells/well). After 24 h recovery to allow the cells to resume exponential growth, 0.01 mL of culture medium (6 control wells per plate) or culture medium containing 39-desmethoxyrapamycin were added to the wells. Each concentration was plated in triplicate. 39-Desmethoxyrapamycin was applied in two concentrations (0.001 mM and 0.01 mM). Following 4 days of continuous incubation, cell culture medium with or without 39-desmethoxyrapamycin was replaced by 0.2 mL of an aqueous propidium iodide (PI) solution (7 mg/L). To measure the proportion of living cells, cells were permeabilized by freezing the plates. After thawing the plates, fluorescence was measured using the Cytofluor 4000 microplate reader (excitation 530 nm, emission 620 nm), giving a direct relationship to the total number of viable cells.
(§6) Growth inhibition was expressed as treated/control×100 (% T/C) and are provided for a selection of cell lines. […]

[4] = tested on: 251L (GXF 251L, gastric) tumour cell line; assay: Monolayer proliferation assay (modified propidium iodide), 251L; format: cell-based, human; conditions: 4 days incubation, mean of duplicate experiments
Description: as §1, §2, §3, §4
as §5, with “39-Desmethoxyrapamycin was applied in two concentrations (0.001 mM and 0.01 mM).” left out
as §6

[5] = tested on: H460 (NCl-H460, lung) tumour cell line; assay: Monolayer proliferation assay (modified propidium iodide), H460; format: cell-based, human; conditions: 4 days incubation, mean of duplicate experiments
Description: as §1, §2, §3, §4, §5
Growth inhibition was expressed as treated/control×100 (% T/C) and are provided for a selection of cell lines. For active compounds, the average IC50 & IC70 values across the entire cell line panel examined were estimated by plotting compound concentration versus cell viability and are also provided.
In vitro evaluation of 17-desmethyl-39-desmethoxyrapamycin for anticancer activity in a panel of 12 human tumour cell lines in a monolayer proliferation assay was carried out as described above using a modified propidium iodide assay.

[6] = tested on: MCF7 (MCF-7, breast) tumour cell line; assay: Monolayer proliferation assay (modified propidium iodide), MCF7; format: cell-based, human; conditions: 4 days incubation, mean of duplicate experiments
Description: as §1, §2, §3, §4, §5, §6

[7] = tested on: 394NL (MEXF 394NL, melanoma) tumour cell line; assay: Monolayer proliferation assay (modified propidium iodide), 394NL; format: cell-based, human; conditions: 4 days incubation, mean of duplicate experiments
Description: as §1, §2, §3, §4
as §5, with “39-Desmethoxyrapamycin was applied in two concentrations (0.001 mM and 0.01 mM).” left out
as §6

[8] = tested on: OVCAR3 (OVCAR-3, ovarian) tumour cell line; assay: Monolayer proliferation assay (modified propidium iodide), OVCAR3; format: cell-based, human; conditions: 4 days incubation, mean of duplicate experiments
Description: as §1, §2, §3, §4, §5, §6

[9] = tested on: DU145 (prostate, PTEN positive) tumour cell line; assay: Monolayer proliferation assay (modified propidium iodide), DU145; format: cell-based, human; conditions: 4 days incubation, mean of duplicate experiments
Description: as §1, §2, §3, §4, §5, §6

[10] = tested on: LNCAP (prostate, PTEN negative) tumour cell line; assay: Monolayer proliferation assay (modified propidium iodide), LNCAP; format: cell-based, human; conditions: 4 days incubation, mean of duplicate experiments
Description: as §1, §2, §3, §4
as §5, with “39-Desmethoxyrapamycin was applied in two concentrations (0.001 mM and 0.01 mM).” left out
as §6

[11] = tested on: 1138L (UXF 1138L, uterus) tumour cell line; assay: Monolayer proliferation assay (modified propidium iodide), 1138L; format: cell-based, human; conditions: 4 days incubation, mean of duplicate experiments
Description: as §1, §2, §3, §4, §5, §6

[12] = tested on: panel of human tumour cell lines; assay: Monolayer proliferation assay, mean across the cell line panel; format: cell-based; conditions: average across the cell lines tested; estimated from concentration versus cell viability
Description: as §1, §2, §3, §4, §5, §6

[13] = tested on: fungi; conditions: compared to rapamycin, cited from earlier work; for antifungal activities: Wong et al., 1998
[14] = molecular target: FKBP12 PPlase (Homo sapiens, UniProt P62942); conditions: compared to rapamycin; Box et al., 1995; cited from earlier work
[15] = tested on: murine splenic T cells; conditions: compared to rapamycin; Box et al., 1995; cited from earlier work
[16] = tested on: murine splenic B cells; conditions: compared to rapamycin; Box et al., 1995; cited from earlier work

Chain of FKBP12 PPlase (P62942 whole entry): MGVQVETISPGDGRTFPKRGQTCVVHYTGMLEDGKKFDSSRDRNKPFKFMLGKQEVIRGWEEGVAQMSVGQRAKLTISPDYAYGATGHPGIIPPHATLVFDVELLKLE

CO[C@H]1C[C@@H]2CC[C@@H](C)[C@@](O)(O2)C(=O)C(=O)N2CC(O)C[C@H]2C(=O)O[C@H]([C@H](C)C[C@@H]2CC[C@@H](O)[C@H](OC)C2)CC(=O)[C@H](C)/C=C(\C)[C@@H](O)CC(=O)[C@H](C)C[C@H](C)/C=C/C=C/C=C/1C (stereo partly shown) [4-hydroxyprolyl-26-desmethoxy-rapamycin]
inhibitory activity in proliferation assays [1]: significantly less than that of rapamycin

CO[C@H]1C[C@@H]2CC[C@@H](C)[C@](O)(CC(=O)N3CCCC[C@H]3C(=O)O[C@H]([C@H](C)C[C@@H]3CC[C@@H](O)[C@H](OC)C3)CC(=O)[C@H](C)/C=C(\C)[C@@H](O)[C@@H](OC)C(=O)[C@H](C)C[C@H](C)/C=C/C=C/C=C/1C)O2 [9-deoxorapamycin]
mixed lymphocyte reaction (MLR) inhibitory activity [2]: more significant decrease in activity

CO[C@@H]1/C=C/C=C/C=C/[C@@H](C)C[C@@H](C)C(=O)[C@H](OC)[C@H](O)/C(C)=C/[C@@H](C)C(=O)C[C@@H]([C@H](C)C[C@H]2CC[C@H](O)CC2)OC(=O)[C@@H]2CCCCN2C(=O)C(=O)[C@]2(O)O[C@@H](CC[C@H]2C)C1 [17-desmethyl-39-desmethoxyrapamycin]
Test/Control (%) at drug concentration ([3]; 1 μM): 57%
Test/Control (%) at drug concentration ([3]; 10 μM): 37%
Test/Control (%) at drug concentration ([3]; 100 μM): 4%
Test/Control (%) at drug concentration ([4]; 1 μM): 85%
Test/Control (%) at drug concentration ([4]; 10 μM): 89%
Test/Control (%) at drug concentration ([4]; 100 μM): 16%
Test/Control (%) at drug concentration ([5]; 1 μM): 82%
Test/Control (%) at drug concentration ([5]; 10 μM): 76%
Test/Control (%) at drug concentration ([5]; 100 μM): 3%
Test/Control (%) at drug concentration ([6]; 1 μM): 59%
Test/Control (%) at drug concentration ([6]; 10 μM): 52%
Test/Control (%) at drug concentration ([6]; 100 μM): 8%
Test/Control (%) at drug concentration ([7]; 1 μM): 66%
Test/Control (%) at drug concentration ([7]; 10 μM): 61%
Test/Control (%) at drug concentration ([7]; 100 μM): 4%
Test/Control (%) at drug concentration ([8]; 1 μM): 84%
Test/Control (%) at drug concentration ([8]; 10 μM): 61%
Test/Control (%) at drug concentration ([8]; 100 μM): 8%
Test/Control (%) at drug concentration ([9]; 1 μM): 69%
Test/Control (%) at drug concentration ([9]; 10 μM): 66%
Test/Control (%) at drug concentration ([9]; 100 μM): 5%
Test/Control (%) at drug concentration ([10]; 1 μM): 59%
Test/Control (%) at drug concentration ([10]; 10 μM): 43%
Test/Control (%) at drug concentration ([10]; 100 μM): 15%
Test/Control (%) at drug concentration ([11]; 1 μM): 59%
Test/Control (%) at drug concentration ([11]; 10 μM): 46%
Test/Control (%) at drug concentration ([11]; 100 μM): 5%
IC50 [12]: 13.3 µM
Mean IC70 [12]: 38.2 µM

CO[C@H]1C[C@@H]2CC[C@@H](C)[C@@](O)(O2)C(=O)C(=O)N2CCCC[C@H]2C(=O)O[C@H]([C@H](C)C[C@@H]2CC[C@@H](O)[C@H](OC)C2)CC(=O)[C@H](C)/C=C(\C)[C@@H](O)[C@@H](O)C(=O)[C@H](C)C[C@H](C)/C=C/C=C/C=C/1C [27-O-desmethylrapamycin]
antifungal activity ([13]; Box et al., 1995): lower than that of rapamycin
antifungal activities [13]: lower than that of rapamycin
inhibition of FKBP12 PPlase activity [14]: seemed to be increased
inhibition of ConA-stimulated proliferation of murine splenic T cells [15]: decreased when compared to rapamycin
inhibition of LPS-stimulated proliferation of murine splenic B cells [16]: decreased when compared to rapamycin

CO[C@H]1C[C@@H]2CC[C@@H](C)[C@@](O)(O2)C(=O)C(=O)N2CCCC[C@H]2C(=O)O[C@H]([C@H](C)C[C@@H]2CC[C@@H](O)[C@H](OC)C2)CC(=O)[C@H](C)/C=C(\C)[C@@H](O)CC(=O)[C@H](C)C[C@H](C)/C=C/C=C/C=C/1C [27-desmethoxyrapamycin]
antifungal activities [13]: lower than that of rapamycin

CO[C@H]1C[C@@H]2CC[C@@H](C)[C@@](O)(O2)C(=O)C(=O)N2CCCC[C@H]2C(=O)O[C@H]([C@H](C)C[C@@H]2CC[C@@H](O)[C@H](OC)C2)CC(=O)[C@H](C)/C=C(\C)[C@@H](O)[C@@H](OC)C(=O)[C@H](C)C[C@H](C)/C=C/C=C/C=C/1C [Rapamycin, reference compound]
Test/Control (%) at drug concentration ([5]; 10 μM): 66%
Mean IC70 [12]: 9.1 µM

COC1CC2CCC(C)C(O)(O2)C(=O)C(=O)N2CCCC2C(=O)OC(C(C)CC2CCC(O)C(OC)C2)CC(=O)C(C)/C=C(\C)C(O)C(OC)C(=O)C(C)CC(C)/C=C/C=C/C=C/1C (stereo not shown) [prolylrapamycin]
antifungal activities [13]: lower than that of rapamycin
